From patent US4767762A, “Tricyclic quinoline and naphthyride antibacterials” (Abbott Laboratories, priority 1986, dated 1988)
In brackets after ≈: the same amount, converted by molar mass.

Tests used:
Assay in all cases: in vitro antibacterial activity (MIC), conventional agar dilution
Format in all cases: cell-based
Acinetobacter sp CMX 669 = details: CMX669, brain-heart infusion agar, inoculum 10^4 /plate
Experimental: (§1) The in vitro antibacterial activity is determined by conventional agar dilution procedures. A brain-heart infusion agar medium containing the drug is inoculated with a microbial culture cultivated on a brain-infusion broth (Difco 0037-01-6) at 36° C. for 18 hours and then observes for growth of the microorganism. The minimum concentration at which growth of the microorganism is inhibited is taken as MIC (ug/ml). The inoculum size is 10^4 /plate.

E. coli Juhl = details: Escherichia coli, brain-heart infusion agar, inoculum 10^4 /plate
Experimental: as §1

[1] = tested on: Ent. aerogenes ATCC 13048; details: Klebsiella aerogenes, ATCC13048, brain-heart infusion agar, inoculum 10^4 /plate
Experimental: as §1

Ent. faecium ATCC 8043 = details: Enterococcus faecium, ATCC8043, brain-heart infusion agar, inoculum 10^4 /plate
Experimental: as §1

K. pneumoniae ATCC 8045 = details: Klebsiella pneumoniae, ATCC8045, brain-heart infusion agar, inoculum 10^4 /plate
Experimental: as §1

P. aeruginosa A5007 = details: Pseudomonas aeruginosa, brain-heart infusion agar, inoculum 10^4 /plate
Experimental: as §1

P. stuartii CMX 640 = details: Providencia stuartii, CMX640, brain-heart infusion agar, inoculum 10^4 /plate
Experimental: as §1

Stap. aureus ATCC-6538p = details: Staphylococcus aureus, ATCC6538P, brain-heart infusion agar, inoculum 10^4 /plate
Experimental: as §1

Stap. epidermis 3519 = details: brain-heart infusion agar, inoculum 10^4 /plate
Experimental: as §1

Strep. Pyogenes EES61 = details: Streptococcus pyogenes, brain-heart infusion agar, inoculum 10^4 /plate
Experimental: as §1

Row | MIC (Acinetobacter sp CMX 669) [mg/L] | MIC (E. coli Juhl) [mg/L] | MIC [1] [mg/L] | MIC (Ent. faecium ATCC 8043) [mg/L] | MIC (K. pneumoniae ATCC 8045) [mg/L] | MIC (P. aeruginosa A5007) [mg/L] | MIC (P. stuartii CMX 640) [mg/L] | MIC (Stap. aureus ATCC-6538p) [mg/L] | MIC (Stap. epidermis 3519) [mg/L] | MIC (Strep. Pyogenes EES61) [mg/L] | Structure (SMILES)
1 | 0.2 (≈ 0.467 µM) | 0.2 (≈ 0.467 µM) | 0.39 (≈ 0.91 µM) | 1.56 (≈ 3.64 µM) | 0.1 (≈ 0.233 µM) | 1.56 (≈ 3.64 µM) | 12.5 (≈ 29.2 µM) | 0.01 (≈ 0.0233 µM) | 0.2 (≈ 0.467 µM) | 1.56 (≈ 3.64 µM) | CN1CCN(c2cc3c(cc2F)c(=O)c2c(=O)[nH]sc2n3-c2ccc(F)cc2)CC1 [46(a), 9-p-fluorophenyl-6-fluoro-7-(4-methyl-1-piperazinyl)-2,3,4,9-tetrahydroisothiazolo[5,4-b]quinoline-3,4-dione]
2 | 0.1 (≈ 0.233 µM) | 0.05 (≈ 0.117 µM) | 0.02 (≈ 0.0467 µM) | 0.78 (≈ 1.82 µM) | 0.01 (≈ 0.0233 µM) | 1.56 (≈ 3.64 µM) | 6.2 (≈ 14.5 µM) | 0.01 (≈ 0.0233 µM) | 0.2 (≈ 0.467 µM) | 0.78 (≈ 1.82 µM) | CC1CN(c2cc3c(cc2F)c(=O)c2c(=O)[nH]sc2n3-c2ccc(F)cc2)CCN1 (stereo not shown) [46(b), 9-p-fluorophenyl-6-fluoro-7-(3-methyl-1-piperazinyl)-2,3,4,9-tetrahydroisothiazolo[5,4-b]quinoline-3,4-dione]
3 | 0.2 (≈ 0.6 µM) | 0.05 (≈ 0.15 µM) | 0.2 (≈ 0.6 µM) | 0.2 (≈ 0.6 µM) | 0.05 (≈ 0.15 µM) | 0.2 (≈ 0.6 µM) | > 100 | 0.01 (≈ 0.03 µM) | 0.02 (≈ 0.06 µM) | 1.56 (≈ 4.68 µM) | CCn1c2cc(N3CCCC3)c(F)cc2c(=O)c2c(=O)[nH]sc21 [46(bbb), 9-ethyl-6-fluoro-7-(1-pyrrolidinyl)-2,3,4,9-tetrahydroisothiazolo[5,4-b]quinoline-3,4-dione]
4 | 0.1 (≈ 0.224 µM) | 0.05 (≈ 0.112 µM) | 0.1 (≈ 0.224 µM) | 0.2 (≈ 0.448 µM) | 0.1 (≈ 0.224 µM) | 0.78 (≈ 1.75 µM) | 0.39 (≈ 0.874 µM) | 0.05 (≈ 0.112 µM) | 0.1 (≈ 0.224 µM) | 0.78 (≈ 1.75 µM) | CC1CN(c2cc3c(cc2F)c(=O)c2c(=O)[nH]sc2n3-c2ccc(F)cc2F)CC1N (stereo not shown) [46(g), 9-o,p-difluorophenyl-6-fluoro-7-(3-amino-4-methyl-1-pyrrolidinyl)-2,3,4,9-tetrahydroisothiazolo[5,4-b]quinoline-3,4-dione]

Further lines, the compound ahead of its results:

Row | Structure (SMILES) | MIC (Acinetobacter sp CMX 669) [mg/L] | MIC (E. coli Juhl) [mg/L] | MIC [1] [mg/L] | MIC (Ent. faecium ATCC 8043) [mg/L] | MIC (K. pneumoniae ATCC 8045) [mg/L] | MIC (P. aeruginosa A5007) [mg/L] | MIC (P. stuartii CMX 640) [mg/L] | MIC (Stap. aureus ATCC-6538p) [mg/L] | MIC (Stap. epidermis 3519) [mg/L] | MIC (Strep. Pyogenes EES61) [mg/L]
5 | CCn1c2s[nH]c(=O)c2c(=O)c2cc(F)c(N3CCN(C)CC3)c(F)c21 [46(cc), 9-ethyl-6,8-difluoro-7-(4-methyl-1-piperazinyl)-2,3,4,9-tetrahydroisothiazolo[5,4-b]quinoline-3,4-dione] | 0.1 (≈ 0.263 µM) | 0.1 (≈ 0.263 µM) | 0.2 (≈ 0.526 µM) | 0.39 (≈ 1.03 µM) | 0.05 (≈ 0.131 µM) | 3.1 (≈ 8.15 µM) | 3.1 (≈ 8.15 µM) | 0.1 (≈ 0.263 µM) | 0.2 (≈ 0.526 µM) | 0.78 (≈ 2.05 µM)
6 | CCn1c2s[nH]c(=O)c2c(=O)c2cc(F)c(N3CCNCC3)c(F)c21 [46(dd), 9-ethyl-6,8-difluoro-7-(piperazinyl)-2,3,4,9-tetrahydroisothiazolo[5,4-b]quinoline-3,4-dione] | 0.2 (≈ 0.546 µM) | 0.05 (≈ 0.136 µM) | 0.05 (≈ 0.136 µM) | 0.2 (≈ 0.546 µM) | 0.05 (≈ 0.136 µM) | 0.78 (≈ 2.13 µM) | 0.78 (≈ 2.13 µM) | 0.05 (≈ 0.136 µM) | 0.05 (≈ 0.136 µM) | 0.39 (≈ 1.06 µM)
7 | CCn1c2cc(N3CCN(C)CC3)c(F)cc2c(=O)c2c(=O)[nH]sc21 [46(l), 9-ethyl-6-fluoro-7-(4-methyl-1-piperazinyl)-2,3,4,9-tetrahydroisothiazolo[5,4-b]quinoline-3,4-dione] | 0.05 (≈ 0.138 µM) | 0.05 (≈ 0.138 µM) | 0.1 (≈ 0.276 µM) | 0.2 (≈ 0.552 µM) | 0.05 (≈ 0.138 µM) | 0.39 (≈ 1.08 µM) | 1.56 (≈ 4.3 µM) | 0.05 (≈ 0.138 µM) | 0.1 (≈ 0.276 µM) | 0.39 (≈ 1.08 µM)
